Measurements: patent US20110028686A1, “Protein binding miniature proteins” (Yale University, priority 2000, published 2011)
Where two headings read alike, the source gives them in different places. Each block holds one compound with its values, some of them ahead of it. Peptide text beside a SMILES is read from it. * marks the point of attachment. Fluorescein(5-NHCOCH2) = O=C(C*)Nc1ccc2c(c1)C(=O)OC21c2ccc(O)cc2Oc2cc(O)ccc21

What was measured:
[1] = test system: hsCRE24 (CRE half-site DNA, ATGAC); test: Electrophoretic mobility shift assay, binding to hsCRE24 DNA; conditions: for DNA binding: EMSA
Experimental: Miniature protein-binding to DNA was measured using an electrophoretic mobility shift assay performed in a Model SE600 Dual-Controller Vertical Slab Unit (Hoefer) using 14×16 cm gel plates. Temperature was controlled using a constant temperature bath. Reactions were performed in a binding buffer composed of 137 mM NaCl, 2.7 mM KCl, 4.3 mM Na2HPO4, 1.4 mM NaH2PO4 (pH 7.4), 1 mM EDTA, 0.1% NP-40, 0.4 mg/ml BSA (non-acetylated) and 5% glycerol. For experiments involving the bZIP peptide C/EBP152, the binding buffer was supplemented with 2 mM dithiothreitol. Serial peptide dilutions were performed as 1:1 dilutions with binding buffer. In general, 0.002 ml of gamma ^32P-labeled, double-stranded DNA (CRE24, hsCRE24, C/EBP24 or hsCEBP24; final concentration ≦50 pM in binding buffer; final concentration ≦5 pM for peptides with Kapp <500 pM) in binding buffer were added to 0.008 ml of a serial peptide dilution on ice. Peptide-DNA mixtures were incubated for thirty minutes on ice and then applied to a pre-equilibrated, native polyacrylamide gel (8% acrylamide:bisacrylamide) prepared in 10 mM Tris buffer (pH. 8.1). Gels were allowed to run 0.75 to 1.5 hours at 500 V and were dried on a Model SE1160 Drygel Sr. gel dryer (Hoefer). The gels were analyzed using a Storm 840 Phosphorimager (Molecular Dynamics). Amounts of free and bound DNA were quantified and analyzed using the program KaleidaGraph 3.0 (Synergy Software). Dissociation constants were determined by fitting the data to the Langmuir equation=c[(1+(Kapp/peptideT^n))^−1] where n=1 for PPEBP^SR and EBP^SR and n=2 for C/EBP152. In these equations, theta=cpm in protein-DNA complex/(cpm in protein-DNA complex+cpm free DNA); peptideT=the total peptide concentration and c is an adjustable parameter representing the maximum value of theta (c ≦1; for many peptides c was defined as 1). Values reported represent the average of at least three independent trials ±the standard error. Error bars on the plots represent the standard error for each data point.

[2] = target: T1, HisKIX (His-tagged CBP KIX domain) (Mus musculus, UniProt P45481); test: Equilibrium fluorescence polarization, HisKIX binding; conditions: 25° C.
T1 construct: The CBP KIX-coding region (residues 586 to 672) of pGEX-KT KIX 10-672; made in house; host or cells: E. coli BL21(DE3) pArg
T1 sequence (P45481 586-672): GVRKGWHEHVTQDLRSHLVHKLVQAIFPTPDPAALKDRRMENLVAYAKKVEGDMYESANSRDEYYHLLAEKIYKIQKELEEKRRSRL

[3] = 4° C., read-out: affinity (Kd) for hsCRE
[4] = physiological ionic strength, read-out: equilibrium dissociation constant (Kd) of binding to hsCRE

Kd ([2]; fluorescein-labeled unphosphorylated peptide, read-out: Kd HisKIX, unphosphorylated peptide (U)): 3100 ± 500 nM
Kd ([2]; label shows phosphorylated (P) or unphosphorylated (U) form, read-out: Kd HisKIX): 1500 to 3100 nM
Compound: CC[C@H](C)[C@H](NC(=O)[C@H](Cc1ccc(O)cc1)NC(=O)[C@H](Cc1ccccc1)NC(=O)[C@H](Cc1ccccc1)NC(=O)[C@H](CO)NC(=O)[C@H](CC(C)C)NC(=O)[C@H](CCCNC(=N)N)NC(=O)[C@H](CCCNC(=N)N)NC(=O)[C@@H](NC(=O)[C@@H]1CCCN1C(=O)[C@H](C)NC(=O)[C@H](CC(=O)O)NC(=O)[C@H](CC(=O)O)NC(=O)CNC(=O)[C@@H]1CCCN1C(=O)[C@H](CC(=O)O)NC(=O)[C@@H](NC(=O)[C@H](CCCCN)NC(=O)[C@H](Cc1c[nH]c2ccccc12)NC(=O)[C@H](CO)NC(=O)[C@H](CC(C)C)NC(=O)CN)[C@@H](C)O)C(C)C)C(=O)N[C@@H](CC(C)C)C(=O)N[C@@H](CC(C)C)C(=O)N[C@@H](CC(=O)O)C(=O)N[C@@H](CC(C)C)C(=O)N[C@@H](Cc1ccc(O)cc1)C(=O)N[C@@H](CC(C)C)C(=O)N[C@@H](CC(=O)O)C(=O)N[C@@H](C)C(=O)N1CCC[C@H]1C(=O)NCC(=O)N[C@H](C(=O)N[C@@H](CSCC(=O)Nc1ccc2c(c1)C(=O)OC21c2ccc(O)cc2Oc2cc(O)ccc21)C(N)=O)C(C)C [PPKID8] (H-GLSWKTDPGDDAPVRRLSFFYILLDLYLDAPGVC(Fluorescein(5-NHCOCH2))-NH2)

DNA binding [1]: No significant DNA binding was detected
Compound: PPBR11^SR: polyproline helix-basic region peptide, SEQ ID NO: 10 (GPSQPTYPGDDAPVEDLKRFRNTLAARLSRLRKAARAAA; Pancreatic polypeptide basic region PPBR11)

DNA binding [1]: No significant DNA binding was detected
Compound: PPBRO^SR: polyproline helix-basic region peptide, SEQ ID NO: 8, lacking DNA-contact residue(s) (GPSQPTYPGDDAPVEDLKRFRNTLAAYLSVVRKLQRMKQ; Pancreatic polypeptide basic region PPBR0)

DNA binding [1]: No significant DNA binding was detected
Compound: PPBR10^SR: polyproline helix-basic region peptide, SEQ ID NO: 9 (GPSQPTYPGDDAPVEDLKRFRNTLAAYLSRLRKAARAAA; Pancreatic polypeptide basic region PPBR10)

Further lines, the compound ahead of its results:

Compound: GPSQPTYPGDDAPVEDLKRFRNTLAARRSRARKAARAAA [PPBR4^SR]
delta, delta-G, hsCRE24 in preference to hsCEBP24 [1]: -4.4 kcal/mol
ratio of protein concentrations required to bind one-half of the two DNA [1]: 2600
delta, delta-G of discrimination against mutations at the 5′ terminus of hsCRE ([1]; 4° C.): -1.7 kcal/mol
Kd [1, 3]: 1.9 ± 0.2 nM
DNA binding at 25° C. [1]: Neither PPBR4 nor G27 showed evidence of DNA binding
specificity ratio Krel, hsCRE24 in preference to hsCEBP24 ([1]; Krel (Kd(hsCRE)/Kd(hsCEPB))): 2600
formation of the hsCRE24 complex in presence of competitor DNA ([1]; high concentrations of poly (dIdC)-(dIdC) or a scrambled CRE site (NON)): unaffected
Kd [1, 4]: 1.5 nM

Compound: DPAALKRARNTEAARRSRARKLQRMQC [G27, reference compound]
stability of hsCRE24 complex lower than that of PPBR4^SR-hsCRE24 complex [1]: 3.1 kcal/mol
Kd [1, 3]: 410 ± 53 nM
DNA binding at 25° C. [1]: Neither PPBR4 nor G27 showed evidence of DNA binding

Compound: GPSQPTYPGDDAPVEDLKRFRNTLAARRSRARKLQRMKQ [PPBR2^SR]
Kd [1, 4]: 5 nM
